Where a name gives a salt, the structure may show the parent alone.

Usually IC50 stands for the concentration needed to halve the response being measured.

This test deals with T1, SCD (stearoyl-CoA desaturase) (Rattus norvegicus, UniProt P07308).
T1 construct: The rat liver microsomes were collected according to the procedure described in Ozols (1990) Methods Enzm, 182:225; from tissue; host or cells: liver microsomes of male Sprague Dawley rats after induction with a carbohydrate-rich diet
T1 sequence (P07308 1-358): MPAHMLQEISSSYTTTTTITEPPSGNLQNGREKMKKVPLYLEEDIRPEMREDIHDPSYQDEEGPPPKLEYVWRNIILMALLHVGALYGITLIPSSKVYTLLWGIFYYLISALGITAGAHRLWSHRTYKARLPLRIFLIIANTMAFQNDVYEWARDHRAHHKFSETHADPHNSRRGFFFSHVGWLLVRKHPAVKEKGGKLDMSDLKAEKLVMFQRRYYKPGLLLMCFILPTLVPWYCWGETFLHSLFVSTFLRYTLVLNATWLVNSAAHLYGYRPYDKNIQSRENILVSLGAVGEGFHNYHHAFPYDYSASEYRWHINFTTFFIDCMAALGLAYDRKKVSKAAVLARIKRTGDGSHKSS
Description: SCD assay with rat liver microsomes ([3H]stearoyl CoA desaturation, adapted from Talamo and Bloch). The conditions noted are these: rat liver microsomes 0.2 mg/ml final, 30 min preincubation, stearoyl CoA substrate, 45 min, room temperature. It is filed as biochemical. From the text:
The identification of compounds of the invention as SCD inhibitors was readily accomplished using the SCD enzyme and microsomal assay procedure described in Talamo and Bloch (1969) Analytical Biochemistry 29:300-304.
The rat liver microsomes were collected according to the procedure described in Ozols (1990) Methods Enzm, 182:225.
Male Sprague Dawley Rats were placed on regimented fasting protocol for one week to stimulate SCD enzymatic activity. 48-hour periods were alternated between feeding and fasting to induce and down-regulate SCD activity with SCD activity being induced via carbohydrate rich diet prior to liver perfusion and collection.
The supernatant was then aspirated off and the collected microsomal pellet washed in 25 mL of Glycerol PBS (1× PBS 7.4, 20% Glycerol) and resuspended in 4-5 volumes of Glycerol PBS.
SCD was determined in the desaturase assay buffer. This assay buffer contained 0.1 M Tris buffer, pH 7.2, 2 mM NADH, 4.8 mM ATP, 0.5 mM CoA, 4.8 mM MgCl2, and 0.1% BSA.
The Procedure for the SCD Assay (Adapted from Talamo and Bloch (1969) Analytical Biochemistry 29:300-304)
1 μl of each compound of Formula I was added to an assay plate by a low volume (0.5-10 μL) multichannel pipette. A DMSO control was also prepared. The microsomes were quickly thawed and added to assay buffer so that a concentration of 0.4 mg/ml was achieved (0.2 mg/ml assay final). 50 μl of the microsome suspension in assay buffer was then added into each well in the compound assay plate, the plate was covered, and the microsomes preincubated with the compounds for 30 minutes on the orbital shaker, 50-75 rpm, at room temperature.
After preincubation, the reaction was initiated by the addition of 50 μl of substrate solution (20 μM Stearoyl CoA, [3H]Stearoyl CoA, 74nCi) to the preincubated microsomes/compound suspensions in MilliQ (Millipore) H2O. The reaction mixtures were then incubated for 45 minutes on the orbital shaker at 50-75 rpm at room temperature.
The reaction was terminated by the addition of 10 μl of 21% trichloroacetic acid (TCA) to the reaction mixture followed incubation on the orbital shaker for 30 minutes at 50-75 rpm at room temperature followed by centrifugation for 5 minutes at 3700 rpm.
50 μl of a 6% Bio-Bead suspension in H2O was added to the reaction mixture and the assay plate was sealed. The Bio-Bead mixture was incubated on the orbital shaker for 1 hour, 100-150 rpm at room temperature, and then the mixture was centrifuged at 2000 g for 5 minutes to pellet the Bio-Beads.
25 μl of the supernatant was harvested from each well and transferred to a detection plate. 100 μl of OptiPhase SuperMix scintillation cocktail (containing sufficient NaOH to neutralize the TCA) was added and the solutions mixed by vigorous shaking (300-400 rpm) for 5 minutes at room temperature.
The compound `CC(=O)NCCN1C(=O)C(C)Oc2ccc(NCc3ccc(Cl)c(Cl)c3)cc21` (racemic) [Compound 9, (±)-N-(2-(6-(3,4-dichlorobenzylamino)-2-methyl-3-oxo-2H-benzo[b][1,4]oxazin-4(3H)-yl)ethyl)acetamide] gave an IC50 of 1 to 10 nM. For `CC(=O)NCCN1C(=O)C(C)Oc2ccc(NCc3ccc(Cl)c(C(F)(F)F)c3)cc21` (racemic) [Compound 10, (±)-N-(2-(6-(4-chloro-3-(trifluoromethyl)benzylamino)-2-methyl-3-oxo-2H-benzo[b][1,4]oxazin-4(3H)-yl)ethyl)acetamide] the value was 1 to 10 nM; for `CC1Oc2ccc(NCc3ccc(Cl)c(Cl)c3)cc2N(CCNC(=O)CO)C1=O` (racemic) [Compound 11, (±)-N-(2-(6-(3,4-dichlorobenzylamino)-2-methyl-3-oxo-2H-benzo[b][1,4]oxazin-4(3H)-yl)ethyl)-2-hydroxyacetamide], 80 nM. In the case of `CC1Oc2ccc(NCc3ccc(Cl)c(C(F)(F)F)c3)cc2N(CCNC(=O)CO)C1=O` (racemic) [Compound 12, (±)-N-(2-(6-(4-chloro-3-(trifluoromethyl)benzylamino)-2-methyl-3-oxo-2H-benzo[b][1,4]oxazin-4(3H)-yl)ethyl)-2-hydroxyacetamide], the IC50 was 1 to 10 nM. For `NC(=O)CCN1C(=O)COc2ccc(NCc3ccc(Cl)c(Cl)c3)cc21` [Compound 1, 3-(6-(3,4-dichlorobenzylamino)-3-oxo-2H-benzo[b][1,4]oxazin-4(3H)-yl)propanamide] the value was 53.5 nM.

`CC(=O)NCCN1C(=O)COc2ccc(NCc3ccccc3)cc21` [Compound 2, N-(2-(6-(benzylamino)-3-oxo-2H-benzo[b][1,4]oxazin-4(3H)-yl)ethyl)acetamide hydrochloride]: the IC50 turned out to be 14900 nM. This IC50 lies about 280-fold higher than the previous one. Compound `CC(=O)NCCN1C(=O)COc2ccc(NCc3ccc(Cl)c(Cl)c3)cc21` [Compound 3, N-(2-(6-(3,4-dichlorobenzylamino)-3-oxo-2H-benzo[b][1,4]oxazin-4(3H)-yl)ethyl)acetamide hydrochloride] had an IC50 of 10.7 nM. The value for `O=C1COc2ccc(NCc3ccc(Cl)c(Cl)c3)cc2N1CCOc1ccccc1` [Compound 4, 6-(3,4-dichlorobenzylamino)-4-(2-phenoxyethyl)-2H-benzo[b][1,4]oxazin-3(4H)-one] was 22200 nM; that for `CC(=O)NCCN1C(=O)COc2ccc(NCc3ccc(Cl)c(C(F)(F)F)c3)cc21` [Compound 5, N-(2-(6-(4-chloro-3-(trifluoromethyl)benzylamino)-3-oxo-2H-benzo[b][1,4]oxazin-4(3H)-yl)ethyl)acetamide hydrochloride] was 4.87 nM; that for `CC(=O)NCCN1C(=O)COc2ccc(NCc3ccc(F)c(C(F)(F)F)c3)cc21` [Compound 6, N-(2-(6-(4-fluoro-3-(trifluoromethyl)benzylamino)-3-oxo-2H-benzo[b][1,4]oxazin-4(3H)-yl)ethyl)acetamide hydrochloride] was 7.8 nM.

`O=C(NCCN1C(=O)COc2ccc(NCc3ccc(Cl)c(Cl)c3)cc21)c1ccccc1` [Compound 7, N-(2-(6-(3,4-dichlorobenzylamino)-3-oxo-2H-benzo[b][1,4]oxazin-4(3H)-yl)ethyl)benzamide] gave a half-maximal inhibitory concentration (IC50) of 2.52 nM. This IC50 lies about 3.1-fold lower than the previous one. For `O=C(CO)NCCN1C(=O)COc2ccc(NCc3ccc(Cl)c(Cl)c3)cc21` [Compound 8, N-(2-(6-(3,4-dichlorobenzylamino)-3-oxo-2H-benzo[b][1,4]oxazin-4(3H)-yl)ethyl)-2-hydroxyacetamide hydrochloride] the value was 1.39 nM.

The values are drawn from patent US20090253693A1, “2H-BENZO[b][1,4]OXAZIN-3(4H)-ONE DERIVATIVES FOR USE AS STEAROYL CoA DESATURASE INHIBITORS” (priority 2008, published 2009).
